Reference: patent US20230295164A1, “COMPOUNDS HAVING ANTIBACTERIAL ACTIVITY” (The Trustees of Princeton University, priority 2020, published 2023)
In brackets after ≈: the same amount, converted by molar mass.

How the values were obtained:
Test in all cases: MIC testing, broth microdilution in CAMHB
Assay type in all cases: cell-based
[1] = system: Salmonella typhimurium, CMCC 50115; settings: 37° C., 18-20 hr, lowest concentration that completely inhibits visible growth; for MIC: Salmonella enterica, read-out: Compound MICs, Salmonella typhimurium, CMCC 50115
Procedure: (§1) Compounds 1-71 were subsequently tested to determine MICs of the compounds relative to the following five species/strains of bacteria: Staphylococcus aureus, NRS384; Enterococcus faecalis, ATCC 51575; Salmonella typhimurium, CMCC 50115; Escherichia coli, ATCC BAA-198; and Acinetobacter baumannii, ATCC 17978. MIC testing of compounds was conducted according to the following protocol.
(§2) For each strain to be tested, made fresh streaks onto CAMHA from −80° C. glycerol stocks.
(§3) • CAMHB: Dissolved 22 g of the powder per 1 L of purified water. Mixed well. Autoclaved at 121° C. for 10 minutes. Stored at room temperature (RT) for no more than 1 week. • Saline: Dissolved 9 g of the powder per 1 L of purified water. Mixed well. Autoclaved at 121° C. for 30 minutes. Stored at room temperature (RT) for no more than 1 week.
(§4) Prepared the stock solutions of the tested compounds.
(§5) For compounds: • a) Dispensed 20 ul compound to the wells in column 1, and 20 ul DMSO to the wells in column 2 to 12; • b) Diluted the compounds by transferring 10 ul compounds from column 1 to 20 ul DMSO in column 2; mix with pipette. • c) Repeated until column 11 to get 3×serial dilutions. Column 12 was the DMSO control.
(§6) A multichannel pipette was used to deliver 1 μl of the diluted compound into each well of the corresponding daughter plate.
(§7) Scraped 4-8 single colonies from an agar plate into 5 ml saline in a 14 ml Falcon conical tube. Vortexed the tube to suspend the bacteria. Adjusted the turbidity to ˜0.2 (corresponding to 0.5 McFarland) with an Ultrospec 10 Cell density meter.
(§8) The strain suspension was diluted 200-fold in CAMHB medium and dispense into a sterile reservoir. A multichannel pipette was then used to deliver 99 μl of the diluted inocula into each well of the corresponding daughter plate.
(§9) Incubate the daughter plates at 37° C., 85% humidity for 18-20 hr.
(§10) A magnifying mirror device was used for ease of scoring the presence or absence of growth in the wells. 96-well micro-plates were photographed.

[2] = system: Enterococcus faecalis, ATCC 51575; settings: 18-20 hr, lowest concentration that completely inhibits visible growth; for Compound MICs, Enterococcus faecalis, ATCC 51575: 37° C.; for MIC: Enterococcus faecalis, ATCC51575, 37° C., read-out: Compound MICs, Enterococcus faecalis, ATCC 51575
Procedure: as §1, §2, §3, §4, §5, §6, §7, §8, §9, §10

[3] = system: Staphylococcus aureus, NRS384; settings: 18-20 hr, lowest concentration that completely inhibits visible growth; for Compound MICs, Staphylococcus aureus, NRS384: 37° C.; for MIC: Staphylococcus aureus, NRS384, 37° C., read-out: Compound MICs, Staphylococcus aureus, NRS384
Procedure: as §1, §2, §3, §4, §5, §6, §7, §8, §9, §10

[4] = system: Escherichia coli, ATCC BAA-198; settings: 18-20 hr, lowest concentration that completely inhibits visible growth; for Compound MICs, Escherichia coli, ATCC BAA-198: 37° C.; for MIC: Escherichia coli, ATCCBAA198, 37° C., read-out: Compound MICs, Escherichia coli, ATCC BAA-198
Procedure: as §1, §2, §3, §4, §5, §6, §7, §8, §9, §10

[5] = system: Acinetobacter baumannii, ATCC 17978; settings: 18-20 hr, lowest concentration that completely inhibits visible growth; for Compound MICs, Acinetobacter baumannii, ATCC 17978: 37° C.; for MIC: Acinetobacter baumannii, ATCC17978, 37° C., read-out: Compound MICs, Acinetobacter baumannii, ATCC 17978
Procedure: as §1, §2, §3, §4, §5, §6, §7, §8, §9, §10

SMILES | Compound MICs, Salmonella typhimurium, CMCC 50115 [1] | Compound MICs, Enterococcus faecalis, ATCC 51575 [2] | Compound MICs, Staphylococcus aureus, NRS384 [3] | Compound MICs, Escherichia coli, ATCC BAA-198 [4] | Compound MICs, Acinetobacter baumannii, ATCC 17978 [5] | MIC [1] | MIC [2] | MIC [3] | MIC [4] | MIC [5]
CC[Si](C#Cc1ccc(CNc2nc(N)nc3ccc4c(ccn4Cc4ccc(C#C[Si](CC)(CC)CC)cc4)c23)cc1)(CC)CC [Compound 27] | >64 µg/mL | >64 µg/mL | >64 µg/mL | >64 µg/mL | >64 µg/mL | – | – | – | – | –
Nc1nc(N)c2c(ccc3c2ccn3Cc2ccc(Br)c3ccccc23)n1 [Compound 44] | 7.11 µg/mL | 0.03 µg/mL | 0.09 µg/mL | 7.11 µg/mL | 64 µg/mL | – | – | – | – | –
Nc1nc(N)c2c(ccc3c2ccn3CCc2ccc(F)cc2)n1 [Compound 39] | 2.37 µg/mL | 0.09 µg/mL | 0.79 µg/mL | 7.11 µg/mL | 21.3 µg/mL | – | – | – | – | –
COc1cc(Cn2ccc3c4c(N)nc(N)nc4ccc32)cc(OC)c1OC [Compound 71] | – | – | – | – | – | 0.79 µg/mL (≈ 2.08 µM) | 0.01 µg/mL (≈ 0.0264 µM) | 0.03 µg/mL (≈ 0.0791 µM) | 2.37 µg/mL (≈ 6.25 µM) | 7.11 µg/mL (≈ 18.7 µM)
N#Cc1ccc(Cn2ccc3c4c(N)nc(N)nc4ccc32)s1 [Compound 57] | 0.09 µg/mL | 0.03 µg/mL | 0.09 µg/mL | 7.11 µg/mL | 7.11 µg/mL | – | – | – | – | –
Nc1nc(N)c2c(ccc3c2ccn3Cc2ccc(-c3ccccc3)cn2)n1 [Compound 58] | 0.26 µg/mL | 0.03 µg/mL | 0.09 µg/mL | 7.11 µg/mL | 2.37 µg/mL | – | – | – | – | –
COc1ccc(Cn2ccc3c4c(N)nc(N)nc4ccc32)c(Cl)c1 [Compound 65] | 0.26 µg/mL | 0.01 µg/mL | 0.09 µg/mL | 7.11 µg/mL | 7.11 µg/mL | – | – | – | – | –
CC(C)c1ccc(Cn2ccc3c4c(N)nc(N)nc4ccc32)nc1 [Compound 59] | 0.26 µg/mL | 0.03 µg/mL | 0.26 µg/mL | 21.3 µg/mL | 7.11 µg/mL | – | – | – | – | –
Nc1nc(N)c2c(ccc3c2ccn3Cc2cccc(Oc3ccccc3)c2)n1 [Compound 5] | – | – | – | – | – | 0.79 µg/mL (≈ 2.07 µM) | 0.03 µg/mL (≈ 0.0786 µM) | 0.26 µg/mL (≈ 0.682 µM) | 7.11 µg/mL (≈ 18.6 µM) | 7.11 µg/mL (≈ 18.6 µM)
Nc1nc(N)c2c(ccc3c2ccn3Cc2csc(C(F)(F)F)n2)n1 [Compound 60] | 0.79 µg/mL | 0.09 µg/mL | 0.79 µg/mL | 7.11 µg/mL | 21.3 µg/mL | – | – | – | – | –
Cc1ccc(Cn2ccc3c4c(N)nc(N)nc4ccc32)c2ccccc12 [Compound 42] | 0.79 µg/mL | 0.01 µg/mL | 0.03 µg/mL | 7.11 µg/mL | 7.11 µg/mL | – | – | – | – | –
Nc1nc(NC2CC2)nc2ccc3c(ccn3Cc3ccc(C#CC4CC4)cc3)c12 [Compound 20] | 21.3 µg/mL | 0.79 µg/mL | 2.37 µg/mL | >64 µg/mL | 64 µg/mL | – | – | – | – | –
Nc1nc(NCCO)c2c(ccc3c2ccn3Cc2ccc(-c3ccccc3)cc2)n1 [Compound 2] | – | – | – | – | – | > 64 µg/mL | 2.37 µg/mL (≈ 5.79 µM) | 2.37 µg/mL (≈ 5.79 µM) | 64 µg/mL (≈ 156 µM) | 7.11 µg/mL (≈ 17.4 µM)
Nc1nc(N)c2c(n1)c(Br)cc1c2ccn1Cc1ccc(F)cc1 [Compound 46] | 2.37 µg/mL | ≤0.001 µg/mL | 0.79 µg/mL | >64 µg/mL | 7.11 µg/mL | – | – | – | – | –
CC#Cc1ccc(Cn2ccc3c4c(N)nc(NC5CC5)nc4ccc32)cc1 [Compound 18] | 7.11 µg/mL | 0.79 µg/mL | 2.37 µg/mL | 21.3 µg/mL | 21.3 µg/mL | – | – | – | – | –
Nc1nc(N)c2c(ccc3c2ccn3Cc2ccc3c(c2)OCO3)n1 [Compound 69] | 0.26 µg/mL | 0.03 µg/mL | 0.09 µg/mL | 2.37 µg/mL | 7.11 µg/mL | – | – | – | – | –
C=C(Cn1ccc2c3c(N)nc(N)nc3ccc21)C(=O)OC [Compound 62] | 0.26 µg/mL | 0.003 µg/mL | 0.79 µg/mL | 21.3 µg/mL | 21.3 µg/mL | – | – | – | – | –
Nc1nc(N)c2c(ccc3c2ccn3Cc2ccc(F)c(F)c2)n1 [Compound 13] | – | – | – | – | – | 0.088 µg/mL (≈ 0.271 µM) | 0.01 µg/mL (≈ 0.0307 µM) | 0.088 µg/mL (≈ 0.271 µM) | 7.11 µg/mL (≈ 21.9 µM) | 2.37 µg/mL (≈ 7.29 µM)
Nc1nc(N)c2c(ccc3c2ccn3Cc2ccc([N+](=O)[O-])cc2)n1 [Compound 34] | 0.26 µg/mL | 0.09 µg/mL | 0.26 µg/mL | 7.11 µg/mL | 21.3 µg/mL | – | – | – | – | –
C#Cc1ccc(Cn2ccc3c4c(N)nc(N)nc4ccc32)cc1 [Compound 1] | – | – | – | – | – | 0.088 µg/mL (≈ 0.281 µM) | 0.01 µg/mL (≈ 0.0319 µM) | 0.088 µg/mL (≈ 0.281 µM) | 2.37 µg/mL (≈ 7.56 µM) | 2.37 µg/mL (≈ 7.56 µM)
N#Cc1cncc(Cn2ccc3c4c(N)nc(N)nc4ccc32)c1 [Compound 53] | 0.26 µg/mL | 0.26 µg/mL | 0.26 µg/mL | 21.3 µg/mL | 64 µg/mL | – | – | – | – | –
C=C(Cn1ccc2c3c(N)nc(N)nc3c(Br)cc21)C(=O)OC [Compound 54] | 21.3 µg/mL | 0.003 µg/mL | 2.37 µg/mL | >64 µg/mL | 64 µg/mL | – | – | – | – | –
C#Cc1ccc(Cn2ccc3c4c(N)nc(N)nc4c(Br)cc32)cc1 [Compound 47] | 2.37 µg/mL | 0.003 µg/mL | 0.09 µg/mL | >64 µg/mL | >64 µg/mL | – | – | – | – | –
Nc1nc(N)c2c(ccc3c2ccn3Cc2ccc(C(F)(F)F)nc2)n1 [Compound 50] | 0.03 µg/mL | 0.003 µg/mL | 0.09 µg/mL | 7.11 µg/mL | 7.11 µg/mL | – | – | – | – | –
Nc1nc(N)c2c(n1)c(C1CC1)cc1c2ccn1Cc1ccc(F)cc1 [Compound 49] | 2.37 µg/mL | 0.26 µg/mL | 2.37 µg/mL | >64 µg/mL | >64 µg/mL | – | – | – | – | –
